Reference: patent US20220088016A1, “CANCER TREATMENT USING MULTI-TARGETED KINASE INHIBITOR IN COMBINATION OF PROTEIN KINASE BIOMARKERS” (ZHEJIANG CROWNMAB BIOTECH CO. LTD., priority 2019, published 2022)
“And” between values parts separate entries of the source, which are not always exact repeats. Equal entries are not always repeated.

Experiments:
ABL1-phosphorylated = ABL1-phosphorylated (Homo sapiens, UniProt P00519); assay: Kinase profiling; format: binding; conditions: read-out: % Ctrl @ 1000 nM
DCAMKL3 = DCAMKL3 (Homo sapiens, UniProt Q9C098); assay: Kinase profiling; format: binding; conditions: read-out: % Ctrl @ 1000 nM
Sequence of DCAMKL3 (Q9C098 whole entry): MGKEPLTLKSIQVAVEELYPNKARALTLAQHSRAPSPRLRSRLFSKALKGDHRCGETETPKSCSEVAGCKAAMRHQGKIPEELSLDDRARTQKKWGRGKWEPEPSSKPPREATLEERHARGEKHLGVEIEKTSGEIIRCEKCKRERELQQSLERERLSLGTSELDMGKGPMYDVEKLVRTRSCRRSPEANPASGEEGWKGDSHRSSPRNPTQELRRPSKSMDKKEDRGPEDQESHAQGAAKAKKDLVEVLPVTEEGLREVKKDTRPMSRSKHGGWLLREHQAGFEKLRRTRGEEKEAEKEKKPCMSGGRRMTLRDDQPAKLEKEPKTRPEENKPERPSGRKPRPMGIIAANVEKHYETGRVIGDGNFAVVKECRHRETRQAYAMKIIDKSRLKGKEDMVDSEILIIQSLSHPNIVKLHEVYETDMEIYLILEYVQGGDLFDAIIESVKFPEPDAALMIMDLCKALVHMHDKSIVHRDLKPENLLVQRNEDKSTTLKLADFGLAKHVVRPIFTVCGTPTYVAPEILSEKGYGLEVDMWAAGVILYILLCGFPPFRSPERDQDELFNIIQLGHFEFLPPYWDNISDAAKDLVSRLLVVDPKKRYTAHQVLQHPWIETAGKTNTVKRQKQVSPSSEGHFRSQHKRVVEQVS

[1] = target: ABL1 (H396P)-nonphosphorylated (Homo sapiens, UniProt P00519, H396P); assay: Kinase profiling; format: binding; conditions: read-out: % Ctrl @ 1000 nM
CSK = CSK (Homo sapiens, UniProt P41240); assay: Kinase profiling; format: binding; conditions: read-out: % Ctrl @ 1000 nM
Sequence of CSK (P41240 whole entry): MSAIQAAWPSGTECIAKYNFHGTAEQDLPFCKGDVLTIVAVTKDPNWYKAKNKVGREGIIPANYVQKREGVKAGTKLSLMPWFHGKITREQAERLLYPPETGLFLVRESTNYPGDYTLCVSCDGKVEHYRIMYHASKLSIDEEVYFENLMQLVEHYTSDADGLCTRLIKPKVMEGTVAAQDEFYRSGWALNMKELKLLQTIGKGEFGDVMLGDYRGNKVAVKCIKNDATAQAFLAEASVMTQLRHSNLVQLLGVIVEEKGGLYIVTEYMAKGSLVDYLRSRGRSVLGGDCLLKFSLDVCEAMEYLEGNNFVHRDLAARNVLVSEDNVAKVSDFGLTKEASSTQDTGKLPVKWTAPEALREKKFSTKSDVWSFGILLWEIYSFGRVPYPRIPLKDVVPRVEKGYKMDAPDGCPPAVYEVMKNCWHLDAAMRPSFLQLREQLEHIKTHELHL

S6K1 = S6K1 (Homo sapiens, UniProt P23443); assay: Kinase profiling; format: binding; conditions: read-out: % Ctrl @ 1000 nM
FLT3 (D835Y) = FLT3 (D835Y) (Homo sapiens, UniProt P36888, D835Y); assay: Kinase profiling; format: binding; conditions: read-out: % Ctrl @ 1000 nM
SNRK = SNRK (Homo sapiens, UniProt Q9NRH2); assay: Kinase profiling; format: binding; conditions: read-out: % Ctrl @ 1000 nM
CDKL2 = CDKL2 (Homo sapiens, UniProt Q92772); assay: Kinase profiling; format: binding; conditions: read-out: % Ctrl @ 1000 nM
PAK3 = PAK3 (Homo sapiens, UniProt O75914); assay: Kinase profiling; format: binding; conditions: read-out: % Ctrl @ 1000 nM
TAOK1 = TAOK1 (Homo sapiens, UniProt Q7L7X3); assay: Kinase profiling; format: binding; conditions: read-out: % Ctrl @ 1000 nM
MC-38 tumor = assay: Subcutaneous MC-38 murine colon cancer model; format: in vivo, mouse; conditions: 20 mg/kg first 11 days, then 10 mg/kg
Method: The MC-38 tumor cells were maintained in vitro with RPMI1640 medium supplemented with 10% fetal bovine serum at 37° C. in an atmosphere of 5% CO2 in air. Each mouse was inoculated subcutaneously after shaving at the right flank region with MC-38 tumor cells (1×10e6) in 0.1 mL of PBS for tumor development. The randomization started when the mean tumor size reached approximately 100 mm^3. Group 1 mice were treated vehicle and group 2 mice were treated 20 mg/kg CBT-102 at first 11 days and reduced to 10 mg/kg afterwards.

CSNK1G2 = CSNK1G2 (Homo sapiens, UniProt P78368); assay: Kinase profiling; format: binding; conditions: read-out: % Ctrl @ 1000 nM
DAPK2 = DAPK2 (Homo sapiens, UniProt Q9UIK4); assay: Kinase profiling; format: binding; conditions: read-out: % Ctrl @ 1000 nM
Sequence of DAPK2 (Q9UIK4 whole entry): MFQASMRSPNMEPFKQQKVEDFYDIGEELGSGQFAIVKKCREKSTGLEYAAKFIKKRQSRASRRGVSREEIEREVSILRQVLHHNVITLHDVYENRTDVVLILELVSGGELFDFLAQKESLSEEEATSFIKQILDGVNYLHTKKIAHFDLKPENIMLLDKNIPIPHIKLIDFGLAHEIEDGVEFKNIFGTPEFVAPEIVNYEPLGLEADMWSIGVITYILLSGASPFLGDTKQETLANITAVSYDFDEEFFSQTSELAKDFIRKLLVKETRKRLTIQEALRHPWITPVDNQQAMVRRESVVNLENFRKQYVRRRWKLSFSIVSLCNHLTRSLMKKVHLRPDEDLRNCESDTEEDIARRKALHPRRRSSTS

GRK2 = GRK2 (Homo sapiens, UniProt P25098); assay: Kinase profiling; format: binding; conditions: read-out: % Ctrl @ 1000 nM
EPHA6 = EPHA6 (Homo sapiens, UniProt Q9UF33); assay: Kinase profiling; format: binding; conditions: read-out: % Ctrl @ 1000 nM
DYRK1B = DYRK1B (Homo sapiens, UniProt Q9Y463); assay: Kinase profiling; format: binding; conditions: read-out: % Ctrl @ 1000 nM
TNK2 = TNK2 (Homo sapiens, UniProt Q07912); assay: Kinase profiling; format: binding; conditions: read-out: % Ctrl @ 1000 nM
Sequence of TNK2 (Q07912 whole entry): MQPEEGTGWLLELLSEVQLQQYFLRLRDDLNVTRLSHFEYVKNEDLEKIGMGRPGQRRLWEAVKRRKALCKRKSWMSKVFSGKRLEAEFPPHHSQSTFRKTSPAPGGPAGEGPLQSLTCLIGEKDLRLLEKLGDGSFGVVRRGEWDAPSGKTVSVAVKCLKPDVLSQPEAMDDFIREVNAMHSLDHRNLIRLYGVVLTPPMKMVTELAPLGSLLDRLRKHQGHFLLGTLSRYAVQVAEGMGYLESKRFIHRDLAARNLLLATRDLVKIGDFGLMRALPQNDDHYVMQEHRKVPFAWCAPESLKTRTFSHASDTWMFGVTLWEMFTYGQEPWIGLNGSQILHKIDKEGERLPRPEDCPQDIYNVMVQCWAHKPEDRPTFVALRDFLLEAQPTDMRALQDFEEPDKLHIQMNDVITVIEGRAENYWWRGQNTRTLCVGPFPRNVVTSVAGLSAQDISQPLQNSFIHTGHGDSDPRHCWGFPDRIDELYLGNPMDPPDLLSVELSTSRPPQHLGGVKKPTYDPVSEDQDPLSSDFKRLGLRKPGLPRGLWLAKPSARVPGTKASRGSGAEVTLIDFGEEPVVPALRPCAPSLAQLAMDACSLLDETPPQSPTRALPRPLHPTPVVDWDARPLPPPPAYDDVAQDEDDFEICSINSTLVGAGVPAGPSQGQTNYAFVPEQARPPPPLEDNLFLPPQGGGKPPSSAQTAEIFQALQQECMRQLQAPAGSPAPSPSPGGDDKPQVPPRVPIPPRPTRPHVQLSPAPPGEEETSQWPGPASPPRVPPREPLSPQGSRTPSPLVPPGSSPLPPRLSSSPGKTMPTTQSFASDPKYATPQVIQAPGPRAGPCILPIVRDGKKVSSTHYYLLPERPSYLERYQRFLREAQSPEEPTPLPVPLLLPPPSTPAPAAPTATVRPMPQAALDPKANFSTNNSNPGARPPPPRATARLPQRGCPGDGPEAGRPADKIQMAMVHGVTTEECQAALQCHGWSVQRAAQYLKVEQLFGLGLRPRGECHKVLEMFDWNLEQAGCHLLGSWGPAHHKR

FLT3 (D835H) = FLT3 (D835H) (Homo sapiens, UniProt P36888, D835H); assay: Kinase profiling; format: binding; conditions: read-out: % Ctrl @ 1000 nM
BMPR2 = BMPR2 (Homo sapiens, UniProt Q13873); assay: Kinase profiling; format: binding; conditions: read-out: % Ctrl @ 1000 nM
MLCK = target: T1, MLCK (Homo sapiens, UniProt Q32MK0); assay: Kinase profiling; format: binding; conditions: read-out: % Ctrl @ 1000 nM
T1 construct: T7 phage fusion (stated for most kinases of the panel only); made in house; host or cells: T7 phage in E. coli (BL21-derived) or HEK-293 cells

TYRO3 = TYRO3 (Homo sapiens, UniProt Q06418); assay: Kinase profiling; format: binding; conditions: read-out: % Ctrl @ 1000 nM
CSNK1E = CSNK1E (Homo sapiens, UniProt P49674); assay: Kinase profiling; format: binding; conditions: read-out: % Ctrl @ 1000 nM
MYLK4 = target: T2, MYLK4 (Homo sapiens, UniProt Q86YV6); assay: Kinase profiling; format: binding; conditions: read-out: % Ctrl @ 1000 nM
T2 construct: T7 phage fusion (said for most assays); made in house

[2] = target: JAK3 (JH1domain-catalytic) (Homo sapiens, UniProt P52333); assay: Kinase profiling; format: binding; conditions: read-out: % Ctrl @ 1000 nM
PRKX = PRKX (Homo sapiens, UniProt P51817); assay: Kinase profiling; format: binding; conditions: read-out: % Ctrl @ 1000 nM
PRKD3 = PRKD3 (Homo sapiens, UniProt O94806); assay: Kinase profiling; format: binding; conditions: read-out: % Ctrl @ 1000 nM
JNK2 = JNK2 (Homo sapiens, UniProt P45984); assay: Kinase profiling; format: binding; conditions: read-out: % Ctrl @ 1000 nM
PLK4 = PLK4 (Homo sapiens, UniProt O00444); assay: Kinase profiling; format: binding; conditions: read-out: % Ctrl @ 1000 nM
Sequence of PLK4 (O00444 whole entry): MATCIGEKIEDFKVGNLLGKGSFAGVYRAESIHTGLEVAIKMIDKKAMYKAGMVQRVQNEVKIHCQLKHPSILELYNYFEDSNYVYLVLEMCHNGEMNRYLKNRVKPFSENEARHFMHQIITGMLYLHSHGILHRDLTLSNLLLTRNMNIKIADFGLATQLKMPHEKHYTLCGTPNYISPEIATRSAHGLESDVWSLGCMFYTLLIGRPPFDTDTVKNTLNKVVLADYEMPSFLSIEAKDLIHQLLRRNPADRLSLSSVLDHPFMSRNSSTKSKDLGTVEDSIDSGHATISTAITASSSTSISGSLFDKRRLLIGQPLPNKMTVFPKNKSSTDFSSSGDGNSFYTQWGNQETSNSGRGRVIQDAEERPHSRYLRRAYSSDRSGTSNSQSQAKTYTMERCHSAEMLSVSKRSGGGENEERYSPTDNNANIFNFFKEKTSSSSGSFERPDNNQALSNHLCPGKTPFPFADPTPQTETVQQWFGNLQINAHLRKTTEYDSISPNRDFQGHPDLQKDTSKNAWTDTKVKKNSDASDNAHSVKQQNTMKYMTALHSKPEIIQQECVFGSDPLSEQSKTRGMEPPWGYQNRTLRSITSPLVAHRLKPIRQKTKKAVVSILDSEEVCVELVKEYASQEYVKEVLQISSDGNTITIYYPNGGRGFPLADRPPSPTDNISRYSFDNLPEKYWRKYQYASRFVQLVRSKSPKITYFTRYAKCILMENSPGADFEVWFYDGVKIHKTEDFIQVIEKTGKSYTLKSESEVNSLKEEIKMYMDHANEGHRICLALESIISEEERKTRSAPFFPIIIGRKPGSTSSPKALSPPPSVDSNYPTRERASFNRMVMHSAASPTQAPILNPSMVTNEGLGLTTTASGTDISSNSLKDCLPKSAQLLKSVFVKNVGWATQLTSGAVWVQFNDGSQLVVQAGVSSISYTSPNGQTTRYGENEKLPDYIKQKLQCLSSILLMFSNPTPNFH

TRKA = TRKA (Homo sapiens, UniProt P04629); assay: Kinase profiling; format: binding; conditions: read-out: % Ctrl @ 1000 nM
SYK = SYK (Homo sapiens, UniProt P43405); assay: Kinase profiling; format: binding; conditions: read-out: % Ctrl @ 1000 nM
p38-gamma = p38-gamma (Homo sapiens, UniProt P53778); assay: Kinase profiling; format: binding; conditions: read-out: % Ctrl @ 1000 nM
STK16 = STK16 (Homo sapiens, UniProt O75716); assay: Kinase profiling; format: binding; conditions: read-out: % Ctrl @ 1000 nM
Sequence of STK16 (O75716 whole entry): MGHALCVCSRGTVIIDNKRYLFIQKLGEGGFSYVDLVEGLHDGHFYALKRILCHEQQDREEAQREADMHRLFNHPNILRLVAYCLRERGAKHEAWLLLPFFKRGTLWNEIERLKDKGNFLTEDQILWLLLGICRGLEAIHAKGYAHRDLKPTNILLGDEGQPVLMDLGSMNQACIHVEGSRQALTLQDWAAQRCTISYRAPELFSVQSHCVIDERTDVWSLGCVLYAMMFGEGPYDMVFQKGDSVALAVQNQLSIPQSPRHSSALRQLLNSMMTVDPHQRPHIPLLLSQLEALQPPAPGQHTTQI

FER = FER (Homo sapiens, UniProt P16591); assay: Kinase profiling; format: binding; conditions: read-out: % Ctrl @ 1000 nM
[3] = target: RSK3 (Kin.Dom.1-N-terminal) (Homo sapiens, UniProt Q15349); assay: Kinase profiling; format: binding; conditions: read-out: % Ctrl @ 1000 nM
WNK4 = WNK4 (Homo sapiens, UniProt Q96J92); assay: Kinase profiling; format: binding; conditions: read-out: % Ctrl @ 1000 nM
Sequence of WNK4 (Q96J92 whole entry): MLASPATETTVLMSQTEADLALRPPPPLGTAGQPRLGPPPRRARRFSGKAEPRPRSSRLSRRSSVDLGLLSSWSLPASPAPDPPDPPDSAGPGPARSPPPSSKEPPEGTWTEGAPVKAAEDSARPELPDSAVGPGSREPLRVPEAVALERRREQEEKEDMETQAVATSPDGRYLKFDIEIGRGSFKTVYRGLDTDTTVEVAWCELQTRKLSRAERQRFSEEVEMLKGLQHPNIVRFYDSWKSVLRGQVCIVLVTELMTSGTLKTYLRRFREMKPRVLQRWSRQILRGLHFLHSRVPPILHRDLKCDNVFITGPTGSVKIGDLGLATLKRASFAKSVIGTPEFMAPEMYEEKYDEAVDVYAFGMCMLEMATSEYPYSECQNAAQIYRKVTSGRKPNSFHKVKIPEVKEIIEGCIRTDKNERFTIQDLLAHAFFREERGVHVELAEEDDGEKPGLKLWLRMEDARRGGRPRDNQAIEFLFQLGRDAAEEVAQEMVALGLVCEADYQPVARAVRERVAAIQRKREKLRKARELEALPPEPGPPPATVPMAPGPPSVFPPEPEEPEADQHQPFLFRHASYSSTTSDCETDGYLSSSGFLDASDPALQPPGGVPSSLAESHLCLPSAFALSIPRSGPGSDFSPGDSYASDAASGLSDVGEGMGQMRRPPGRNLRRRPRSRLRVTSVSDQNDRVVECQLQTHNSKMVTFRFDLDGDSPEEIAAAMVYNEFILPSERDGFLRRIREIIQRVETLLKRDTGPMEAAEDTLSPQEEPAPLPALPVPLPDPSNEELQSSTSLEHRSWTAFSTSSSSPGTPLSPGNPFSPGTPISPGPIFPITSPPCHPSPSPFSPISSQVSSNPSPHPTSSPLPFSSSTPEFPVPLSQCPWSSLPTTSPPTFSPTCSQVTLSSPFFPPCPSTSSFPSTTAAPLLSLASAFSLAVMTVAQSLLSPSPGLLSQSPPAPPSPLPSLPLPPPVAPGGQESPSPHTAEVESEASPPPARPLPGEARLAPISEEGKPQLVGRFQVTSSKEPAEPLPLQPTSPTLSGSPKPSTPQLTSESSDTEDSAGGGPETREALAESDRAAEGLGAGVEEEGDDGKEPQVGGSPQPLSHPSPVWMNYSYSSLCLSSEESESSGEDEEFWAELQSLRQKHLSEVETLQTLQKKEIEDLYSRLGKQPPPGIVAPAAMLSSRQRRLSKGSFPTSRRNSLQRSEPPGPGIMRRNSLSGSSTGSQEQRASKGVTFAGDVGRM

TAK1 = TAK1 (Homo sapiens, UniProt O43318); assay: Kinase profiling; format: binding; conditions: read-out: % Ctrl @ 1000 nM

What does the source list for `Cc1cc(Oc2cc(NC(=O)C3CC3)ncn2)ccc1NC(=O)Nc1ccc(Cl)c(C(F)(F)F)c1` [CBT-102]?
remaining activity at 1 µM (ABL1-phosphorylated): 67%; remaining activity at 1 µM (DCAMKL3): 100%; remaining activity at 1 µM [1]: 20%; remaining activity at 1 µM (CSK): 29%; remaining activity at 1 µM (S6K1): 99%; remaining activity at 1 µM (FLT3 (D835Y)): 61%; remaining activity at 1 µM (SNRK): 100%; remaining activity at 1 µM (CDKL2): 0.45%; remaining activity at 1 µM (PAK3): 100%; remaining activity at 1 µM (TAOK1): 49%; Tumor Size on day34 (MC-38 tumor; Day34 (PG-D21)): 454.63 mm^3 and 454.63 ± 60.72 mm^3; T/C (MC-38 tumor; day34): 20.09%; TGI (MC-38 tumor; day34, vs vehicle): 79.91%; remaining activity at 1 µM (CSNK1G2): 94%; remaining activity at 1 µM (DAPK2): 95%; remaining activity at 1 µM (GRK2): 100%; remaining activity at 1 µM (EPHA6): 2.7%; remaining activity at 1 µM (DYRK1B): 100%; remaining activity at 1 µM (TNK2): 93%; remaining activity at 1 µM (FLT3 (D835H)): 42%; remaining activity at 1 µM (BMPR2): 82%; remaining activity at 1 µM (MLCK): 100%; remaining activity at 1 µM (TYRO3): 82%; remaining activity at 1 µM (CSNK1E): 100%; remaining activity at 1 µM (MYLK4): 100%; remaining activity at 1 µM [2]: 82%; remaining activity at 1 µM (PRKX): 93%; remaining activity at 1 µM (PRKD3): 91%; remaining activity at 1 µM (JNK2): 31%; remaining activity at 1 µM (PLK4): 98%; remaining activity at 1 µM (TRKA): 74%; remaining activity at 1 µM (SYK): 100%; remaining activity at 1 µM (p38-gamma): 28%; remaining activity at 1 µM (STK16): 100%; remaining activity at 1 µM (FER): 73%; remaining activity at 1 µM [3]: 98%; remaining activity at 1 µM (WNK4): 89%; remaining activity at 1 µM (TAK1): 12%
